Experimental data reported in ChEMBL document CHEMBL3797140, “Acridin-3,6-dialkyldithiourea hydrochlorides as new photosensitizers for photodynamic therapy of mouse leukemia cells” (Bioorg Med Chem, 2016).
pIC50: −log10 of the molar value. The source made the active and inactive calls. The calls are words filed in the database; no cut-off is given here.

What was measured:
L1210 [1] = test: Induction of cell cycle arrest in mouse L1210 cells assessed as accumulation at sub-G0 phase at 0.5 uM preincubated for 1 hr measured after 24 hrs by propidium iodide staining-based flow cytometry in absence of light (reference value: 16.6 +/- 0.4%); conditions: l1210, 24 h
[2] = Induction of ROS generation measured after UV-A irradiation by spin trapping agent DMPO based EPR spectroscopy; format: physicochemical
[3] = Drug uptake in lysosome of mouse L1210 cells at 2 uM preincubated for 1 hr followed by 1.05 J/cm2 UV-A irradiation by LysoTracker staining-based flow cytometry; format: ADME, cell-based; conditions: l1210, 2 µM
L1210 [4] = test: Induction of apoptosis in mouse L1210 cells assessed as late apoptotic cells at 0.5 uM preincubated for 1 hr followed by 1.05 J/cm2 UV-A irradiation measured after 24 hrs by Hoechst 33342 and propidium iodide staining-based fluorescence microscopy; format: functional, cell-based
L1210 [5] = test: Induction of necrosis in mouse L1210 cells at 0.5 uM preincubated for 1 hr followed by 1.05 J/cm2 UV-A irradiation measured after 5 hrs by Annexin Red based flow cytometry; format: functional
L1210 [6] = test: Phototoxicity in mouse L1210 cells at 1 uM preincubated for 1 hr followed by 1.05 J/cm2 UV-A irradiation measured after 24 hrs by lactate dehydrogenase leakage assay; format: functional, cell-based
[7] = Phototoxicity against mouse NIH/3T3 cells assessed as cell viability preincubated for 1 hr followed by 1.05 J/cm2 UV-A irradiation measured after 48 hrs by MTT assay; format: cell-based; conditions: NIH3T3, light or radiation study
[8] = Dark toxicity against mouse L1210 cells assessed as cell viability after 48 hrs by MTT assay; format: cell-based
L1210 [9] = test: Drug uptake in mouse L1210 cells at 1 uM after 15 mins to 6 hrs by fluorescence microscopy; format: ADME, cell-based; conditions: l1210, 1 µM
Calf thymus DNA = test: Binding affinity to calf thymus DNA by UV-visible spectrophotometry; format: nucleic-acid assay; conditions: Bos taurus
[10] = Drug uptake in cytosol of mouse L1210 cells at 1 uM after 1 to 6 hrs by fluorescence microscopy; format: ADME, cell-based
L1210 [11] = test: Induction of apoptosis in mouse L1210 cells assessed as caspase 9 activation at 1 uM preincubated for 1 hr followed by 1.05 J/cm2 UV-A irradiation measured after 4 to 6 hrs by Western blot method; format: functional, cell-based
L1210 [12] = test: Induction of cell cycle arrest in mouse L1210 cells assessed as accumulation at sub-G0 phase at 1 uM preincubated for 1 hr followed by 1.05 J/cm2 UV-A irradiation measured after 4 hrs by propidium iodide staining-based flow cytometry (reference value: 16.8 +/- 0.6%); format: functional
[13] = Cytotoxicity against human HL60 cells after 48 hrs by MTT assay; format: functional, cell-based; conditions: HL-60, 48 h
L1210 [14] = test: Induction of cell cycle arrest in mouse L1210 cells assessed as accumulation at sub-G0 phase at 0.5 uM preincubated for 1 hr followed by 1.05 J/cm2 UV-A irradiation measured after 4 hrs by propidium iodide staining-based flow cytometry (reference value: 16.8 +/- 0.6%); format: functional
L1210 [15] = test: Induction of autophagy in mouse L1210 cells assessed as accumulation of LC3BII at 0.5 to 1 uM preincubated for 1 hr followed by 1.05 J/cm2 UV-A irradiation measured after 4 to 6 hrs by Western blot method; format: functional, cell-based
L1210 [16] = test: Induction of ROS generation in mouse L1210 cells at 0.5 uM preincubated for 1 hr followed by 1.05 J/cm2 UV-A irradiation by fluorescence microscopy in presence of trolox; format: functional, cell-based
L1210 [17] = test: Decrease in ATP level in mouse L1210 cells at 0.5 uM preincubated for 1 hr followed by 1.05 J/cm2 UV-A irradiation measured after 6 hrs by luciferase reporter assay; format: functional; design: scale not given: the % may be the effect or the level left
[18] = Drug uptake in mitochondria of mouse L1210 cells at 2 uM preincubated for 1 hr followed by 1.05 J/cm2 UV-A irradiation by MitoRed staining-based flow cytometry; format: ADME; conditions: l1210, 2 µM
[19] = Drug uptake in lysosome of mouse L1210 cells at 2 uM preincubated with 10.5 nM bafilomycin A1 followed by compound exposure for 1 hr followed by 1.05 J/cm2 UV-A irradiation by LysoTracker staining-based flow cytometry; format: ADME, cell-based; conditions: l1210, 1 h
L1210 [20] = test: Induction of apoptosis in mouse L1210 cells assessed as Bax level at 0.5 uM preincubated for 1 hr measured after 8 hrs by Western blot method in absence of light; format: cell-based; conditions: l1210, 8 h
L1210 [21] = test: Induction of cell cycle arrest in mouse L1210 cells assessed as accumulation at sub-G0 phase at 1 uM preincubated for 1 hr followed by 1.05 J/cm2 UV-A irradiation measured after 24 hrs by propidium iodide staining-based flow cytometry (reference value: 16.8 +/- 0.6%); format: functional
L1210 [22] = test: […] in mouse L1210 cells at 1 uM preincubated for 1 hr followed by 1.05 J/cm2 UV-A irradiation measured after 24 hrs by lactate dehydrogenase leakage assay; format: cell-based; conditions: l1210, 24 h
L1210 [23] = test: Phototoxicity in mouse L1210 cells at 0.5 uM preincubated for 1 hr followed by 1.05 J/cm2 UV-A irradiation measured after 6 hrs by lactate dehydrogenase leakage assay; format: functional, cell-based
L1210 [24] = test: Induction of apoptosis in mouse L1210 cells assessed as caspase 3 activation at 0.5 to 1 uM preincubated for 1 hr followed by 1.05 J/cm2 UV-A irradiation measured after 4 to 6 hrs by Western blot method; format: functional, cell-based
L1210 [25] = test: Phototoxicity against mouse L1210 cells assessed as cell viability preincubated with 0.5 nM bafilomycin A1 followed by compound exposure for 1 hr followed by 1.05 J/cm2 UV-A irradiation measured after 48 hrs by MTT assay in presence of pepstatin A; format: functional, cell-based
[26] = Drug uptake in lysosome of mouse L1210 cells at 2 uM preincubated with […] followed by compound exposure for 1 hr followed by 1.05 J/cm2 UV-A irradiation by LysoTracker staining-based flow cytometry; format: ADME, cell-based; conditions: l1210, 1 h

Activity (L1210 [1]): 25.9%
Activity [2]: Active
Drug uptake [3]: Active
Drug uptake (L1210 [9]): Active
K (Calf thymus DNA): 6.8 ×10⁵ /M
Drug uptake [10]: Not Active
Drug uptake [18]: 53%
Drug uptake [19]: Not Active
Drug uptake [26]: Not Active
Compound: CCCNC(=S)Nc1ccc2cc3ccc(NC(=S)NCCC)cc3nc2c1.Cl
Activity (L1210 [4]): Active
Activity (L1210 [5]): 24%
Activity (L1210 [6]): Active
pIC50 [7]: 5.36
IC50 at 48 h [8]: 5.7 µM
Activity (L1210 [11]): Active
Activity (L1210 [12]): 32.5%
pIC50 [13]: 5.14
Activity (L1210 [14]): 22.5%
Activity (L1210 [15]): Active
Activity (L1210 [16]): inactive
Activity (L1210 [17]): 30%
Activity (L1210 [20]): Non-toxic
Activity (L1210 [21]): 47.9%
Activity (L1210 [22]): Non-toxic
Activity (L1210 [23]): inactive
Activity (L1210 [24]): inactive
Activity (L1210 [25]): inactive
